# US20060287315A1, “Pyrazinedicarboxamides and their use” (Bayer HealthCare AG, priority 2004, published 2006)
# Where a name gives a salt, the structure may show the parent alone.
# Biological target: human factor Xa (FXa) (Homo sapiens, UniProt P00742)
# Test: Determination of the factor Xa inhibition (chromogenic substrate)
# Type: biochemical
# Settings: human FXa 0.5 nmol/l, Pefachrome FXa substrate, 25° C., pH 8.3, extinction at 405 nm
# Procedure: A.1) Determination of the Factor Xa Inhibition:
# The enzymatic inhibition of human factor Xa (FXa) is measured using the conversion of a chromogenic substrate specific for FXa. Factor Xa cleaves p-nitroaniline from the chromogenic substrate. The determinations are carried out in microtitre plates as follows:
# The test substances, in various concentrations, are dissolved in DMSO and incubated for 10 minutes at 25° C. with human FXa (0.5 nmol/l dissolved in 50 mmol/l of Tris buffer [C,C,C-tris(hydroxymethyl)aminomethane], 150 mmol/l of NaCl, 0.1% BSA [bovine serum albumin], pH=8.3). Pure DMSO is used as control. The chromogenic substrate ([…] Pefachrome® FXa from Pentapharm) is then added. After an incubation time of 20 minutes at 25° C., the extinction at 405 nm is determined.
# Sequence of human factor Xa (FXa) (P00742 235-488 limits assumed): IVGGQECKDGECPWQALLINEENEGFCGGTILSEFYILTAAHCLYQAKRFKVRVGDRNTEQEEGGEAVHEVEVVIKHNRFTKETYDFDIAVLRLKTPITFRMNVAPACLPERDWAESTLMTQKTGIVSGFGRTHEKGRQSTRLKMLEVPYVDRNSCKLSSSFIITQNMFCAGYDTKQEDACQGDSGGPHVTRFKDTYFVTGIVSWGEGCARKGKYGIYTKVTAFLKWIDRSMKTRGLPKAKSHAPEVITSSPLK
# Sequence of human factor Xa (FXa) (P00742 41-179 partner limits assumed): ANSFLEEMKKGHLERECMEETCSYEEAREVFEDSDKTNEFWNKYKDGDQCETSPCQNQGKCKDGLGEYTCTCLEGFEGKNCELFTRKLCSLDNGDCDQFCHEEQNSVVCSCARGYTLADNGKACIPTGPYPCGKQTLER
row,Compound,IC50 [nM]
1,"O=C(Nc1ccc(Cl)cn1)c1nccnc1C(=O)Nc1ccc(N2CCCC(O)C2=O)cc1F (centres unmarked) [Example 9, N-(5-Chloropyridin-2-yl)-N′-[2-fluor-4-(3-hydroxy-2-oxopiperidin-1-yl)phenyl]pyrazine-2,3-di-carboxamide]",4.4
2,"O=C(Nc1ccc(N2CCOCC2=O)cc1)c1nccnc1C(=O)Nc1ccc(Cl)cn1 [Example 12, N-(5-Chloropyridin-2-yl)-N′[4-(3-oxomorpholin-4-yl)phenyl]pyrazine-2,3-dicarboxamide]",0.16
3,"O=C(Nc1ccc(Cl)cn1)c1nccnc1C(=O)Nc1ccc(-n2cccc(CNC3CC3)c2=O)cc1F [Example 30, N-(5-Chloropyridin-2-yl)-N′-{4-[3-[(cyclopropylamino)methyl]-2-oxopyridin-1(2H)-yl]-2-fluorophenyl}pyrazine-2,3-dicarboxamide trifluoracetate, trifluoroacetate]",0.44
4,"NCCOc1cc(N2CCOCC2=O)ccc1NC(=O)c1nccnc1C(=O)Nc1ccc(Cl)cn1 [Example 32, N-[2-(2-Aminoethoxy)-4-(3-oxomorpholin-4-yl)phenyl]-N′-(5-chloropyridin-2-yl)pyrazine-2,3-dicarboxamide trifluoroacetate]",0.3

# Now from value to compound:
row,IC50 [nM],Compound
1,0.49,"O=C(Nc1ccc(Cl)cc1)c1nccnc1C(=O)Nc1ccc(N2CCOCC2=O)cc1 [Example 11, N-(4-Chlorophenyl)-N′-[4-(3-oxomorpholin-4-yl)phenyl]pyrazine-2,3-dicarboxamide]"
2,16,"O=C(Nc1ccc(F)cc1)c1nccnc1C(=O)Nc1ccc(N2CCOCC2=O)cc1 [Example 17, N-(4-Fluorophenyl)-N′[4-(3-oxomorpholin-4-yl)phenyl]pyrazine-2,3-dicarboxamide]"
3,7.5,"Cc1ccc(NC(=O)c2nccnc2C(=O)Nc2ccc(N3CCOCC3=O)cc2)cc1 [Example 18, N-(4-Methylphenyl)-N′-[4-(3-oxomorpholin-4-yl)phenyl]pyrazine-2,3-dicarboxamide]"
4,6.3,"C#Cc1ccc(NC(=O)c2nccnc2C(=O)Nc2ccc(N3CCOCC3=O)cc2)cc1 [Example 20, N-(4-Ethynylphenyl)-N′-[4-(3-oxomorpholin-4-yl)phenyl]pyrazine-2,3-dicarboxamide]"
